# Test results taken from patent US12616681B2, “Compositions and methods for treating renal injury” (priority 2019, dated 2026).
# Columns and labels:
# [1] = test system: contrast-induced acute kidney injury (CIAKI) mice; test: CIAKI mouse model: AMP and adenosine levels in renal tissue; format: in vivo, C57/BL6 mice; conditions: CIAKI mice, CM + drug, 48 h after CM
# Procedure: 48 h after CM administration, serum and kidney tissues were harvested. The adenosine levels in the serum and kidney tissues were measured using high-performance liquid chromatography.
# [2] = test system: contrast-induced acute kidney injury (CIAKI) mice; test: CIAKI mouse model: PGE2 receptor (EP) expression in kidney tissue; format: in vivo, C57/BL6 mice; conditions: CM + drug
# [3] = test system: mice with ischemic AKI (bilateral renal IRI); test: Renal IRI model: necrotic and apoptotic cell death, gross pathology; format: in vivo, C57/BL6 mice; conditions: 24 h after renal IRI; 5 mg/kg ip three times
# Description: To evaluate necrosis, 5-μm-thick paraffin sections were stained with hematoxylin and eosin. Tubular injury of individual slides was scored semi-quantitatively according to a scoring system by a pathologist in a blinded manner. The scoring system was as follows: 0, no damage; 1, patchy isolated unicellular necrosis; 2, tubular necrosis <25%; 3, tubular necrosis 25-50%; and 4, tubular necrosis >50%. To analyze the frequency of apo ptosis, 5-μm-thick paraffin sections were subjected to a TUNEL assay (Millipore, Temecula, CA) according to the manufacturer's protocol. TUNEL-positive cells were counted in at least five separate fields (64 magnification) in the outer medulla, and the apoptosis index (in %, number of apoptosis cells/total number of cells) was calculated using GENASIS software.
# [4] = test system: contrast-induced acute kidney injury (CIAKI) mice; test: CIAKI mouse model: renal vasodilation in the outer medulla; format: in vivo, C57/BL6 mice; conditions: CM + drug, 48 h after CM
# Procedure: 48 h after CM injection, kidney tissues were harvested, fixed in 4% phosphate-buffered formalin, and embedded in paraffin. To quantify vasodilation, the inner arteriole area of the outer medulla was determined using α-SMA-stained sections. They were incubated for 1 h with an α-SMA antibody. 3,30-diamino-benzidine (0.7 g/tablet; Sigma-Aldrich) was added, followed by washing three times with PBS for 1 min each. After counterstaining with Mayer's hematoxylin, the inner areas of α-SMA-positive vessels in the outer medulla (25× magnification) were measured using ImageJ software. The results were expressed as the average area of all of the renal arteries in each outer medulla section.
# [5] = test system: PGE2 levels in kidney tissue; test: Renal PGE2 levels in normal mice 1 h after injection (Example 2); format: in vivo
# Procedure: Next, 20 mg kidney tissue was homogenized in […] cold PBS containing indomethacin (10 μg/mL) using a tissue homogenizer. The suspension was sonicated in an ice-water bath for 1 min using cycles of 10 s of sonication with 10 s of cooling, and then they were centrifuged for 10 min at 12,000 rpm. The supernatant was collected for PGE-2 assay. Protein concentrations were determined by bicinchoninic acid assay (Cat. #23225, Thermo Scientific). The PGE2 level in the supernatant was measured using a PGE2 enzyme-linked immunosorbent assay kit (R&D Systems, Minneapolis, MN, USA) in triplicate. PGE-2 levels were expressed as ng of PGE2/mg protein.
# [6] = test system: contrast-induced acute kidney injury (CIAKI) mice; test: CIAKI mouse model: renal blood flow (laser Doppler flux); format: in vivo, C57/BL6 mice; conditions: CM + drug, 48 h after CM
# Procedure: Total RBF was assessed by measuring renal Doppler flux using noninvasive laser Doppler flowmetry (PeriFlux System 5000, Perimed AB, Sweden). Laser Doppler probes were placed on the kidney surface to measure the renal flux. The flux was measured 48 h after CM administration. The relative increase represented the percentage increase in renal blood flow from baseline to peak for each test. Statistical significance was set as p<0.05.
# [7] = test system: contrast-induced acute kidney injury (CIAKI) mice; test: CIAKI mouse model: necrotic and apoptotic cell death, gross findings; format: in vivo, C57/BL6 mice; conditions: 48 h after CM
# Procedure: Kidneys were harvested at 48 h after the CM injection, fixed in 4% phosphate-buffered formalin, and embedded in paraffin. To evaluate necrosis, […] paraffin sections were stained with hematoxylin and eosin. Tubular injury was scored semi-quantitatively according to a system by a pathologist who examined at least 20 separate fields (400× magnification) in the outer medulla, which is the zone most sensitive to ischemic injury. The scoring system was as follows: 0, no damage; 1, patchy isolated unicellular necrosis; 2, tubular necrosis <25%; 3, tubular necrosis 25-50%; and 4, tubular necrosis >50%. At least 20 consecutive high-power fields per section were scored by two operators blind to the details of the experiment. To analyze the frequency of apoptosis, […] paraffin sections were subjected to terminal deoxynucleotidyl transferase-mediated dUTP nick-end labeling (TUNEL) assay (Millipore, Temecula, CA, USA) according to the manufacturer's protocol. Four […] paraffin sections were incubated with the TUNEL reaction mixture at 37° C. for 1 h, followed by incubation with a horseradish peroxidase-conjugated detection antibody. The signals were visualized using diaminobenzidine (Sigma-Aldrich). After counterstaining with Mayer's hematoxylin, TUNEL-positive cells were counted in at least five separate fields (640× magnification) in the outer medulla, and the apoptosis index (%, number of apoptosis cells/total number of cells) was calculated using GENASIS software.
smiles,measurement,setting,value
CCCC[S+]([O-])c1sc2nc(-c3cccs3)cc(-c3ccccc3)c2c1N (centres unmarked) [SW033291],AMP in renal tissue,[1],15.60 ± 1.26 ng/mL
same,adenosine in renal tissue,[1],2.65 ± 0.15 ng/mL
same,EP3 expression,[2],1.00±0.02 fold
same,EP4 expression level,[2],1.25±0.02 fold
same,count of TUNEL-positive apoptotic cells,[3],reducing
same,histological renal injury score,[3],reducing
same,tissue congestion in the outer medulla (gross pathology),[3],ameliorated
same,average renal arteriole area in the outer medulla,[4],1132.97±159.86 μm^2
same,increase of renal PGE2 vs vehicle-administered normal mice,"[5]; 1 h after administration, average",three times
same,renal PGE2 levels,"[5]; normal mice, 1 h after ip 5 mg/kg",29.71 ± 2.79 ng/mg
same,RBF (renal Doppler flux),[6],635.2±11.10
same,vascular congestion in the outer medullary region (gross findings),[7],less-congested
same,proportion of TUNEL-positive cells,[7]; CM + drug,24.01±2.90%
same,microscopic renal injury score,"[7]; CM + drug, score 0-4",0.53±0.16
